According to patent publication US11975111B2, “Dactinomycin compositions and methods for the treatment of myelodysplastic syndrome and acute myeloid leukemia” (Tiziana Life Sciences PLC, priority 2016, dated 2024):
*1 amine or outer side, *2 acyl side, *3 side chain or, on linkers, in order; H or OH if unused. Where a SMILES comes first, the peptide text is derived from it. Bridges are numbered along the chain shown (N, C = ends). Roman numbers before positions name the chains, in order. [ ]: non-standard residue; d: D form. Actinocin(9to1) = Cc1c2oc3c(C)ccc(C(=O)[*:1])c3nc-2c(C(=O)[*:2])c(N)c1=O; NMeV = CN[CH](C(=O)O)C(C)C; Sar = CNCC(=O)O

Key:
[1] = cited from earlier work
[2] = tested on: NPM1-mutated cell line OCI/AML3; assay: Act-D induced nucleolar disintegration and apoptosis (NPM1/DAPI photographs); type: cell-based; conditions: OCI/AML3, FIG. 3
Excerpt: NPM1=Nucleophosmin and DAPI=4′,6-diamidino-2-phenylindole—a fluorescent stain that binds strongly to A-T rich regions in DNA.

[3] = Single dose intravenous tolerability in rats, 900 μg/kg; type: in vivo, Female Sprague Dawley rats; conditions: for clinical observations, signs of toxicity: post-dose observation
Method: A side by side comparison of the tolerability of free actinomycin D (i.e., not in a nanoparticle) and four compositions comprising actinomycin D nanoparticles (NP-ActD) formulations in rats when dosed by intravenous administration.
Female Sprague Dawley rats (HSd:SD), 6-8 weeks and 150-175 g at dosing were used for these studies. This is a single dose study with observations for 14 days post-dose. On day 1 of the study, each animal received either 900 μg/kg of the free actinomycin D or a NP-ActD formulations (900 μg/kg of the active) in a fixed volume of 1 mL/kg according to the study design in the Table below.
The following parameters were monitored: clinical observations daily, mortality, body weights, and food consumption. A full necropsy will be conducted on Day 14 post-dose, at which time organ weights and macroscopic findings will be determined. The organs will be preserved for future histology and the lungs, liver, pancreas, spleen, brain and kidneys will be frozen in liquid nitrogen for measurement of actinomycin D/NP-ActD accumulation.
Blood was collected for pharmacokinetic evaluation following dosing on Day 1 at 0.083, 0.25, 0.5, 1, 2, 6, and 24 hours post dose. Serum samples will be collected for clinical chemistry and whole blood samples for hematology.

[4] = Pharmacokinetics in rats, single dose 0.3 mg/kg IV; type: in vivo
Method: Rats administered single dose (0.3 mg/kg) of unformulated and formulated Actinomycin D via IV injection. (FIG. 31)
Processed plasma samples at indicated times extracted in mixture of methanol and formic acid to determine total (free and encapsulated) API in systemic circulation.

[5] = Plasma dactinomycin (CMAX, 6 hr) in rat tolerability study, 0.5 mg/kg IV; type: in vivo; conditions: rats, comparison in words
Method: (§1) Free and formulated actinomycin D (0.5 mg/kg) was administered via IV
(§2) In another experiment, rats were also administered a single dose (0.5 mg/kg) of free and formulated Act D via IV (intravenous) injection.

[6] = Tolerability in rats, 0.5 mg/kg IV, body weight; type: in vivo; conditions: over 7 days post treatment
Method: as §1, §2

p53 = assay: Western blots of p53 activation in patient tumor cells; type: cell-based, human; conditions: NPM1-mutated AML tumor cells contacted in vitro or in vivo, 2 cycles of 5 consecutive days at 12.5 μg/kg
NPM1-mutated AML = assay: Treatment of AML patients with dactinomycin alone or with low-dose cytarabine; type: in vivo, human
Method: FIG. 5 is a chart showing sequencing by the TruSight Myeloid Panel.—mutated genes (*).
FIG. 7 is a photograph of a computerized tomography (CT) scan showing pneumonitis in a subject administered dactinomycin at 15 μg/kg for 5 days.
FIGS. 9A and B are a pair of photographs depicting a bone marrow (BM) examination before and after therapy with dactinomycin alone.
Complete blood count (CBC) d=46, white blood cell 4130/mm^3, neutrophil percent (N=66%), hemoglobin (Hb)=7.7 g/dL, platelet (PLT) count 192.000/mm^3. Erythropoietin (EPO) dosage=17.8 mUl/ml (inappropriate response). Patient started on Darbopoetina.
Dactinomycin compositions of the disclosure may be administered with FLT3 inhibitors. […] There are two types of FLT3 mutations: internal tandem duplications (ITD) near the juxtamembrane domain of the receptor and point mutations in the activation loop of the tyrosine kinase domain (TKD mutations). TKD mutations comprise approximately 7% of patients, while ITD mutations are less prevalent in pediatrics and AML patients who were previously categorized as having MDS. (Fathi, A. T. et al. Eur. J. Haematol. 2017, 98: 330-336.)

## Cc1c2oc3c(C)ccc(C(=O)NC4C(=O)NC(C(C)C)C(=O)N5CCCC5C(=O)N(C)CC(=O)N(C)C(C(C)C)C(=O)OC4C)c3nc-2c(C(=O)NC2C(=O)NC(C(C)C)C(=O)N3CCCC3C(=O)N(C)CC(=O)N(C)C(C(C)C)C(=O)OC2C)c(N)c1=O (stereo not drawn) [dactinomycin, 2-amino-N,N′-bis(hexadecahydro-2,5,9-trimethyl-6,13-bis(1-methylethyl)-1,4,7,11,14-pentaoxo-1H-pyrrolo(2,1-I)(1,4,7,10,13)oxatetra-azacyclohexadecin-10-yl)-4,6-dimethyl-3-oxo-3H-phenoxazine-1,9-dicarboxamide] (I: TVP[Sar][NMeV] / II: TVP[Sar][NMeV]; ester I:1-I:C, II:1-II:C; linker I:N-II:N via Actinocin(9to1); configuration not given here)
[1]; patients showing adverse events, IV 1 mg/m^2 or 1.5 mg/m^2
  AUC0-6 hrs in patients showing adverse events: 4 mg·min/L
[1]; ratio
  AUC0-6 hrs, patients with adverse events versus without: 1.46 times higher
[1]; subjects not showing adverse events, IV 1 mg/m^2 or 1.5 mg/m^2
  AUC0-6 hrs in subjects not showing adverse events: 2.67 mg·min/L
[2]
  nucleolar disintegration and apoptosis: induced nucleolar disintegration and apoptosis
[3]; 13 days post-dose
  mortality rate: about 80%
[3]; Day 7 post dose, 6 rats per group
  additional animals euthanized: two
[3]; Day 9, 6 rats per group
  more animals euthanized: two
[3]; day 6 post-dose, 6 rats per group
  animals moribund and euthanized: 1 animal
[3]; rats, 900 μg/kg IV single dose, FIG. 32
  body weights: consistently decreased body weights
[3]; rats, 900 μg/kg IV single dose, listed as free Act D
  clinical observations, signs of toxicity: piloerection, decreased activity, bleeding at the nares, and hunched posture
[3]; rats, 900 μg/kg IV single dose, listed as free ActD
  clinical observations, signs of toxicity: piloerection and discolored urine
[3]; thirteen days post-dose
  animals remained: 1/6
[4]; extrapolated to humans
  Theoretical Cmax in Humans: 7.5 ng/mL
[4]; rat, plasma, 0.3 mg/kg, rats, IV
  Cmax: 60 ng/mL
[5]
  CMAX, total (free and encapsulated) dactinomycin in plasma: lower
[6]; listed as free API
  body weight: significant decrease in body weight
[6]; listed as free dactinomycin
  body weight: significant decrease in body weight
[6]; listed as unformulated API
  body weight: adverse effect on body weight
p53
  p53 activation (Western blot): p53 activation
NPM1-mutated AML; Patient, FIG. 5
  mutated genes by TruSight Myeloid Panel sequencing after treatment: NMP1, IDH2 and STAG2 mutations not detected
NPM1-mutated AML; before and after therapy
  bone marrow (BM) examination after therapy: marked reduction of leukemic blast infiltration with partial normal hematopoietic recovery
NPM1-mutated AML; clinical trials, AML patients
  efficacy in clinical trials: about 60 % of the patients treated
NPM1-mutated AML; following one cycle of treatment, FIG. 8
  hematological recovery: hematological recovery
NPM1-mutated AML; subject administered 15 μg/kg for 5 days
  CT scan finding: pneumonitis
